Results from US20260365628A1, “SUBSTITUTED 3,4-DIHYDROQUINOLINONE INHIBITORS OF TSHR” (Septerna, Inc., priority 2022, published 2026).

Each compound was assayed against T1, hTSHR (Homo sapiens, UniProt P16473) (assay: hTSHR TR-FRET cAMP Assay (inhibition of M22-stimulated cAMP production)). Conditions: Expi293F Inducible cells stably expressing hTSHR; cAMP HTRF; stimulated with EC80 of anti-TSHR antibody M22; 15 min compound preincubation, 30 min at 37° C.; read-out: Activity (IC50 bins).
T1 construct: expressed in transfected cells
Format: cell-based
Method in brief: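 Readout was a cAMP HTRF ratio of 655/620 nm after lysis, scaled between the EC80 M22 signal (0% inhibition) and no-agonist vehicle (100%). Frozen induced Expi293F-hTSHR cells saw test compounds (0.5% DMSO) for 15 min at 37 °C before 30 min of M22 stimulation at EC80.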

T1 sequence (P16473 21-764): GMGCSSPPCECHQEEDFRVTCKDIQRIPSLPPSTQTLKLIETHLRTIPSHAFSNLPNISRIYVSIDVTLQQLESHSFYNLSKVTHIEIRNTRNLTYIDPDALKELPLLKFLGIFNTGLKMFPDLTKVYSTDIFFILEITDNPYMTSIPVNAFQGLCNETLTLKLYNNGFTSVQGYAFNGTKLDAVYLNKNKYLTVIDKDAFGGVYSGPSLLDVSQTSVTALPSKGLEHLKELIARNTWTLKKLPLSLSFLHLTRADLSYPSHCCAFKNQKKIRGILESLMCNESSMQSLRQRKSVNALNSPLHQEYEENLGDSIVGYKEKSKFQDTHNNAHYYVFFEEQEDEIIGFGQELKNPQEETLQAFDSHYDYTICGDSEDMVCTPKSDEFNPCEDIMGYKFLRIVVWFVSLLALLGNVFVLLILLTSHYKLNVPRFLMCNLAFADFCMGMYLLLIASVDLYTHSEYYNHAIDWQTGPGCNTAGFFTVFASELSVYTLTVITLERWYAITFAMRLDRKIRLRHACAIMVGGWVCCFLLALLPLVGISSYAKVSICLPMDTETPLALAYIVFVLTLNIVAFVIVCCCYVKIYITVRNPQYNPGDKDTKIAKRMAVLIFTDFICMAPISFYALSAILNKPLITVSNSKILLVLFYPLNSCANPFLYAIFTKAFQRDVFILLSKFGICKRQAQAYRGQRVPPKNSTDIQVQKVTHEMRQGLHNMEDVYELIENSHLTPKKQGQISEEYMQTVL

First: C[C@@H](c1ccccc1C#N)N1C(=O)CCc2cc(NC(=O)NC(C)(C)C)ccc21 [Example 61, (S)-1-(tert-butyl)-3-(1-(1-(2-cyanophenyl)ethyl)-2-oxo-1,2,3,4-tetrahydroquinolin-6-yl)urea]
Second: C[C@H](c1ccccc1)N1C(=O)CCc2cc(NC(=O)NC(C)(C)C)ccc21 [Example 14, (R)-1-(tert-butyl)-3-(2-oxo-1-(1-phenylethyl)-1,2,3,4-tetrahydroquinolin-6-yl)urea]
The IC50 of the first is lower: 100 to 1000 nM for the first, over 1000 nM for the second. The first is the more potent here.

`C[C@@H](c1cccc(CCC(C)(C)O)c1)n1c(=O)cnc2cc(NC(=O)NC(C)(C)C)ccc21` [Example 116, (S)-1-(tert-butyl)-3-(1-(1-(3-(3-hydroxy-3-methylbutyl)phenyl)ethyl)-2-oxo-1,2-dihydroquinoxalin-6-yl)urea] and `CC(c1cccc(CCC2COC2)c1)n1c(=O)cnc2cc(NC(=O)NC(C)(C)C)ccc21` (stereo not shown) [Example 248, 1-(tert-butyl)-3-(1-(1-(3-(2-(oxetan-3-yl)ethyl)phenyl)ethyl)-2-oxo-1,2-dihydro-quinoxalin-6-yl)urea] cannot be ordered by IC50: over 1000 nM for the first, over 1000 nM for the second.

First: C[C@@H](c1cc(OC(F)(F)F)c(F)cc1F)n1c(=O)cnc2cc(NC(=O)NC(C)(C)C)ccc21 [Example 151, (S)-1-(tert-butyl)-3-(1-(1-(2,4-difluoro-5-(trifluoromethoxy)phe-nyl)ethyl)-2-oxo-1,2-dihydroquinoxalin-6-yl)urea]
Second: CC(c1cc(C(O)C(F)(F)F)ccc1F)n1c(=O)cnc2cc(NC(=O)NC(C)(C)C)ccc21 (stereo not shown) [Example 375, 1-(tert-butyl)-3-(1-(1-(2-fluoro-5-(2,2,2-trifluoro-1-hydroxyethyl)phenyl)ethyl)-2-oxo-1,2-dihydroquinoxalin-6-yl)urea]
The IC50 of the first is lower: 100 to 1000 nM for the first, over 1000 nM for the second. The first is the more potent here.

`Cc1nc2cc(NC(=O)NC(C)(C)C)ccc2n([C@@H](C)c2ccccc2)c1=O` [Example 179, 3-tert-butyl-1-{3-methyl-2-oxo-1-[(1S)-1-phenylethyl]quinoxalin-6-yl}urea] and `Cc1nc2cc(NC(=O)NC(C)(C)C)ccc2n([C@@H](C)c2cccc(Cl)c2)c1=O` [Example 180, (S)-1-(tert-butyl)-3-(1-(1-(3-chlorophenyl)ethyl)-3-methyl-2-oxo-1,2-dihydroquinoxalin-6-yl)urea] fall in the same range of IC50: 100 to 1000 nM for the first, 100 to 1000 nM for the second.

First: C[C@H]1Oc2cc(NC(=O)NC(C)(C)C)ccc2N(Cc2cccc(OC(F)(F)F)c2)C1=O [Example 159, (R)-1-(tert-butyl)-3-(2-methyl-3-oxo-4-(3-(trifluoro-methoxy)benzyl)-3,4-dihydro-2H-benzo [b][1,4]oxazin-7-yl)urea]
Second: C[C@H]1Oc2cc(NC(=O)NC(C)(C)C)ccc2N(Cc2ccnc(C(F)(F)F)c2)C1=O [Example 163, (R)-1-(tert-butyl)-3-(2-methyl-3-oxo-4-((2-(trifluoro-methyl)pyridin-4-yl)methyl)-3,4-dihydro-2H-benzo [b][1,4]oxazin-7-yl)urea]
The IC50 of the first is lower: under 100 nM for the first, 100 to 1000 nM for the second. The first is the more potent here.

Compared with `CN1Cc2cc(NC(=O)NC(C)(C)C)ccc2N(Cc2cccc(C(F)(F)F)c2)C1=O` [Example 70, 1-(tert-butyl)-3-(3-methyl-2-oxo-1-(3-(trifluoromethyl)benzyl)-1,2,3,4-tetrahydroquinazolin-6-yl)urea], `CC(C)(C)NC(=O)Nc1ccc2c(c1)CC(C(F)(F)F)C(=O)N2Cc1ccccc1` (stereo not shown) [Example 301, 1-(1-benzyl-2-oxo-3-(trifluoromethyl)-1,2,3,4-tetrahydroquinolin-6-yl)-3-(tert-butyl)urea] is higher in IC50: under 100 nM for the first, over 1000 nM for the second.

Compared with `C[C@H]1Oc2cc(NC(=O)NC(C)(C)C)ccc2N(Cc2cccc(C(O)C(F)(F)F)n2)C1=O` (stereo partly drawn) [Example 173, 1-(tert-butyl)-3-((2R)-2-methyl-3-oxo-4-((6-(2,2,2-trifluoro-1-hydroxy-ethyl)pyridin-2-yl)methyl)-3,4-dihydro-2H-benzo [b][1,4]oxazin-7-yl)urea], `C[C@H](c1ccnc(C(F)(F)F)n1)N1C(=O)[C@@H](C)Oc2cc(NC(=O)NC(C)(C)C)ccc21` (single isomer, unassigned) [Example 311] is higher in IC50: 100 to 1000 nM for the first, over 1000 nM for the second.

First: CC(C)(C)NC(=O)Nc1ccc2c(c1)CCC(=O)N2Cc1cccc(C(F)(F)F)c1C#N [Example 59, 1-(tert-butyl)-3-(1-(2-cyano-3-(trifluoromethyl)benzyl)-2-oxo-1,2,3,4-tetrahydroquinolin-6-yl)urea]
Second: Cc1ccc(F)c(CN2C(=O)CCc3cc(NC(=O)NC(C)(C)C)ccc32)c1 [Example 49, 1-(tert-butyl)-3-(1-(2-fluoro-5-methylbenzyl)-2-oxo-1,2,3,4-tetrahydroquinolin-6-yl)urea]
The IC50 of the first is higher: 100 to 1000 nM for the first, under 100 nM for the second.

Compared with `CC(C)C1Cc2cc(NC(=O)NC(C)(C)C)ccc2N(Cc2ccccc2)C1=O` (stereo not shown) [Example 32, 1-(1-benzyl-3-isopropyl-2-oxo-1,2,3,4-tetrahydroquinolin-6-yl)-3-(tert-butyl)urea], `CC(C)(C)NC(=O)Nc1ccc2c(c1)OC(CF)C(=O)N2Cc1ccccc1` (stereo not shown) [Example 305, 1-[4-benzyl-2-(fluoromethyl)-3-oxo-2H-1,4-benzoxazin-7-yl]-3-tert-butylurea] is lower in IC50: over 1000 nM for the first, 100 to 1000 nM for the second. The second is the more potent here.

`C[C@@H](c1cccc(Cl)c1)n1c(=O)cnc2cc(NC(=O)NC(C)(C)C)c(C#N)cc21` [Example 361, 3-tert-butyl-1-{1-[(1S)-1-(3-chlorophenyl)ethyl]-7-cyano-2-oxoquinoxalin-6-yl}urea] and `CC(C)c1cccc([C@H](C)n2c(=O)cnc3cc(NC(=O)NC(C)(C)C)ccc32)c1` [Example 136, (S)-1-(tert-butyl)-3-(1-(1-(3-iso-propylphenyl)ethyl)-2-oxo-1,2-dihydroquinoxalin-6-yl)urea] fall in the same range of IC50: 100 to 1000 nM for the first, 100 to 1000 nM for the second.

Compared with `C[C@H]1Oc2nc(NC(=O)NC(C)(C)C)c(C(F)(F)F)cc2N([C@@H](C)c2ccccc2)C1=O` [Example 376, 1-(tert-butyl)-3-((R)-3-methyl-2-oxo-1-((S)-1-phenylethyl)-7-(trifluoromethyl)-2,3-dihydro-1H-pyrido[2,3-b][1,4]oxazin-6-yl)urea], `C[C@@H]1Oc2nc(NC(=O)NC(C)(C)C)ccc2N(Cc2cccc(Cl)c2)C1=O` [Example 286, (S)-1-(tert-butyl)-3-(1-(3-chlorobenzyl)-3-methyl-2-oxo-2,3-dihydro-1H-pyrido[2,3-b][1,4]oxazin-6-yl)urea] is higher in IC50: under 100 nM for the first, over 1000 nM for the second. The first is the more potent here.

`COc1cccc(CN2C(=O)CCc3cc(NC(=O)NC(C)(C)C)ccc32)c1` [Example 22, 1-(tert-butyl)-3-(1-(3-methoxybenzyl)-2-oxo-1,2,3,4-tetrahydroquinolin-6-yl)urea] and `CC(C)(C)NC(=O)Nc1ccc2c(c1)CCC(=O)N2Cc1cccc(Cl)c1` [Example 6, 1-(tert-butyl)-3-(1-(3-chlorobenzyl)-2-oxo-1,2,3,4-tetrahydroquinolin-6-yl)urea] cannot be ordered by IC50: under 100 nM for the first, under 100 nM for the second.

First: CC(C)(C)NC(=O)Nc1ccc2c(c1)OCC(=O)N2Cc1cccc(C2CC2)c1 [Example 73, 1-(tert-butyl)-3-(4-(3-cyclopropylbenzyl)-3-oxo-3,4-dihydro-2H-benzo[b][1,4]oxa-zin-7-yl)urea]
Second: C[C@H](c1cccc(Cl)c1)N1C(=O)COc2cc(NC(=O)NC(C)(C)C)ccc21 [Example 36, (R)-1-(tert-butyl)-3-(4-(1-(3-chlorophenyl)ethyl)-3-oxo-3,4-dihydro-2H-benzo[b][1,4]oxazin-7-yl)urea]
The IC50 of the first is lower: 100 to 1000 nM for the first, over 1000 nM for the second.

First: C[C@H]1Oc2cc(NC(=O)NC3CCCC3)ccc2N(Cc2ccccc2)C1=O [Example 237, (R)-1-(4-benzyl-2-methyl-3-oxo-3,4-dihydro-2H-benzo[b][1,4]oxazin-7-yl)-3-cyclopentylurea]
Second: C[C@H]1Oc2cc(NC(=O)NC(C)(C)CCO)ccc2N(Cc2ccccc2)C1=O [Example 236, (R)-1-(4-benzyl-2-methyl-3-oxo-3,4-dihydro-2H-benzo[b][1,4]oxazin-7-yl)-3-(4-hydroxy-2-methylbutan-2-yl)urea]
The IC50 of the first is lower: under 100 nM for the first, 100 to 1000 nM for the second.

First: C[C@@H](c1cccc(OC(F)(F)F)c1)n1c(=O)cnc2cc(NC(=O)C3CCC3(C)C)ccc21 (stereo in doubt) [Example 219, (S)-2,2-dimethyl-N-(2-oxo-1-((S)-1-(3-(trifluoromethoxy)phenyl)ethyl)-1,2-dihydroquinoxalin-6-yl) cyclobutane-1-carboxamide]
Second: C[C@@H](c1cccc(OC(F)(F)F)c1)n1c(=O)cnc2cc(NC(=O)NC3(C(F)(F)F)CC(F)(F)C3)ccc21 [Example 225, (S)-1-(3,3-difluoro-1-(trifluoromethyl)cyclobutyl)-3-(2-oxo-1-(1-(3-(trifluoromethoxy)phenyl)ethyl)-1,2-dihydroquinoxalin-6-yl)urea]
The IC50 of the first is lower: under 100 nM for the first, 100 to 1000 nM for the second. The first is the more potent here.

First: C[C@H]1Oc2cc(NC(=O)NC3(C)CCCC3)ccc2N([C@@H](C)c2cccc(C(F)(F)F)n2)C1=O [Example 322, 1-((R)-2-methyl-3-oxo-4-((S)-1-(6-(trifluoromethyl)pyridin-2-yl)ethyl)-3,4-dihydro-2H-benzo[b][1,4]oxazin-7-yl)-3-(1-methylcyclopentyl)urea]
Second: CC(C)(C)NC(=O)Nc1ccc2c(c1)CCC(=O)N2Cc1ccc(F)cc1 [Example 27, 1-(tert-butyl)-3-(1-(4-fluorobenzyl)-2-oxo-1,2,3,4-tetrahydroquinolin-6-yl)urea]
The IC50 of the first is lower: under 100 nM for the first, 100 to 1000 nM for the second.

`C[C@@H](c1cccc(OC(F)(F)F)c1)n1c(=O)cnc2c(Cl)c(NC(=O)NC(C)(C)C)ccc21` [Example 218, (S)-1-(tert-butyl)-3-(5-chloro-2-oxo-1-(1-(3-(trifluoromethoxy)phenyl)ethyl)-1,2-dihydroquinoxalin-6-yl)urea] and `C[C@H]1Oc2cc(NC(=O)NC(C)(C)C)c(C#N)cc2N(Cc2cc(Cl)ccc2Cl)C1=O` [Example 367, 3-tert-butyl-1-[(2R)-6-cyano-4-[(2,5-dichlorophenyl)methyl]-2-methyl-3-oxo-2H-1,4-benzoxazin-7-yl]urea] fall in the same range of IC50: 100 to 1000 nM for the first, 100 to 1000 nM for the second.
